Test results: patent US6245817A, “NPY5 receptor antagonists and methods for using same” (Bayer Corporation, priority 1999, dated 2001)
pIC50: −log10 of the molar value.

Experiments:
Human NPY5 Receptor = biological target: T1, Human NPY5 Receptor (Homo sapiens, UniProt Q15761); assay: Human NPY5 Receptor Binding Assay; conditions: [125I]PYY; read-out: hNPY5 IC50
T1 sequence (Q15761 1-445): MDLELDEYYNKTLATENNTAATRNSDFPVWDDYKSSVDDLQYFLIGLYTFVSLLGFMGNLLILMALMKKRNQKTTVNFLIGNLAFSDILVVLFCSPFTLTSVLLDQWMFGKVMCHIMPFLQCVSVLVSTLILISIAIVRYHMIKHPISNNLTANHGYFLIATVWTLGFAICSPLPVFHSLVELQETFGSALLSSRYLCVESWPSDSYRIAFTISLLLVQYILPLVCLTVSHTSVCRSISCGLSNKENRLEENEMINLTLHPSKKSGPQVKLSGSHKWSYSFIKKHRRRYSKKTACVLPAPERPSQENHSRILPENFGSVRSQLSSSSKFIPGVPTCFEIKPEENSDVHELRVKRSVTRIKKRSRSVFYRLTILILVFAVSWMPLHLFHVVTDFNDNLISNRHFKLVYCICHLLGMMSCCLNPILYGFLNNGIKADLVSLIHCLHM

Rat NPY5 Receptor = biological target: T2, Rat NPY5 Receptor (Rattus norvegicus, UniProt Q63634); assay: Rat NPY5 Receptor Binding Assay; conditions: 10 μM, values marked *; read-out: rNPY5 percent inhibition at 10 μM
T2 sequence (Q63634 1-445): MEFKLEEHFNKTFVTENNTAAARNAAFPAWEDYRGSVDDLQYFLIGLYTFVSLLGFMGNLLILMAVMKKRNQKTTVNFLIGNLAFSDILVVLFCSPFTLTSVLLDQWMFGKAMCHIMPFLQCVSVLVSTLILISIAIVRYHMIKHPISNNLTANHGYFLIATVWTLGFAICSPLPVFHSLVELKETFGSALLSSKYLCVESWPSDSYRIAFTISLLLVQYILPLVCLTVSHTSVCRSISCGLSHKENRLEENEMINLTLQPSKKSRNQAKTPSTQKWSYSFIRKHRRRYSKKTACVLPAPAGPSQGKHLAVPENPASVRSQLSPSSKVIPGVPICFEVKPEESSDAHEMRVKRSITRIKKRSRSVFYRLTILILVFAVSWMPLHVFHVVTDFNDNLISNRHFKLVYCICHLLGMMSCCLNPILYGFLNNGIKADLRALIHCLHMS

Human NPY2 receptor = biological target: T3, Human NPY2 receptor (Homo sapiens, UniProt P49146); assay: Human NPY2 Receptor Binding Assay; conditions: [125I]PYY; read-out: hPPY2 IC50
T3 sequence (P49146 1-381): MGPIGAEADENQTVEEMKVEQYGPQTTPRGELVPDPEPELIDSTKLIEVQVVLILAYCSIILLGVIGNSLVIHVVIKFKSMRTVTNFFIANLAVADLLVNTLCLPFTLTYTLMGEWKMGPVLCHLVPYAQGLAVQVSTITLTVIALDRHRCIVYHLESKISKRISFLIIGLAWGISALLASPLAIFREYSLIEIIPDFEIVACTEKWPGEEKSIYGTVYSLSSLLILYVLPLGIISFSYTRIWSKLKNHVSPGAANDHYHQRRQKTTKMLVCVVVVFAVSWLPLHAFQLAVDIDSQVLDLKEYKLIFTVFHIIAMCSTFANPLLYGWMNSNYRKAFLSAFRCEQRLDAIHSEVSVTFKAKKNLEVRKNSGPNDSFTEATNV
Protocol: Binding assays were performed on GF/C Millipore 96-well plates pretreated with 0.02% polyethylenimine. The binding buffer for rat Y2 binding is Krebs-Ringer bicarbonate (pH 7.4) containing 0.01% BSA and 0.005% bacitracin. Samples consist of membrane protein, 25 pM [125I]PYY and drug dilution. Nonspecific binding is defined by 1 μpM NPY.
After a 2 hour incubation at room temperature with constant mixing, the samples are aspirated on a vacuum manifold, and rinsed with ice-cold binding buffer. The amount of radioactivity in each well is quantitated with either gamma counting or liquid scintillation.

Row | SMILES | pIC50 (Human NPY5 Receptor) | inhibition at 10 µM (Rat NPY5 Receptor) | pIC50 (Human NPY2 receptor)
1 | Cn1ccnc1SCC(=O)Nc1ccc(C(=O)c2ccccc2)cc1 [Compound 9] | 6.36 | 93% | < 5.30
2 | O=C(CSc1nc2ccccc2[nH]1)Nc1ccc(C2CCCCC2)cc1 [Compound 11, 2-(1H-Benzoimidazol-2-ylsulfanyl)-N-(4-cyclohexyl-phenyl)-acetamide] | 6.30 | 95% | < 5.30
3 | O=C(CSc1nc2ccccc2[nH]1)Nc1ccc(C(=O)c2ccccc2)cc1 [Compound 12, 2-(1H-Benzoimidazol-2-ylsulfanyl)-N-(4-benzoyl-phenyl)-acetamide] | 6.32 | 95% | < 5.30
4 | Nc1nc(O)c2[nH]c(SCC(=O)Nc3ccc(C4CCCCC4)cc3)nc2n1 [Compound 13, 2-(2-Amino-hydroxy-9H-purin-8-ylsuIfanyl)-N-(4-yclohexyl-phenyl)-acetamide] | 5.25 | 71% | < 5.30
5 | CCOc1ccc2nc(SCC(=O)Nc3ccc(C(=O)c4ccccc4)cc3)sc2c1 [Compound 60] | 5.68 |  | < 5.30
6 | Nc1nnc(SCC(=O)Nc2ccc(C(=O)c3ccccc3)cc2)s1 [Compound 61] | 6.29 |  | < 5.30
7 | O=C(CSc1nnnn1-c1ccccc1)Nc1ccc(C(=O)c2ccccc2)cc1 [Compound 62, N-(4-Benzoyl-phenyl)-2-(1-phenyl-1H-tetrazol-5-ylsulfanyl)-acetamide] | 6.52 |  | < 5.30

Further lines, results first:

Row | pIC50 (Human NPY5 Receptor) | inhibition at 10 µM (Rat NPY5 Receptor) | pIC50 (Human NPY2 receptor) | SMILES
8 | 6.19 |  | < 5.30 | O=C(CSc1ccc(F)cc1)Nc1ccc(C(=O)c2ccccc2)cc1 [Compound 63, N-(4-Benzoyl-phenyl)-2-(4-fluoro-phenylsulfanyl)-acetamide]
9 | 5.57 |  | < 5.30 | CC(=O)Nc1ccc(SCC(=O)Nc2ccc(C(=O)c3ccccc3)cc2)cc1 [Compound 64, 2-(-Acetylamino-phenylsulfanyl)-N-(4-benzoyl-phenyl)-acetamide]
10 | 6.01 |  | < 5.30 | O=C(CSc1ccc(O)cc1)Nc1ccc(C(=O)c2ccccc2)cc1 [Compound 65]
11 | 5.77 |  | < 5.30 | O=C(CSc1nc[nH]n1)Nc1ccc(C(=O)c2ccccc2)cc1 [Compound 66, N-(4-Benzoyl-phenyl)-2-(1H-[1,2,4]triazol-3-ylsulfanyl)-acetamide]
12 | 5.12 |  | < 5.30 | Nc1n[nH]c(SCC(=O)Nc2ccc(C(=O)c3ccccc3)cc2)n1 [Compound 67, 2-(5-Amino-2H-[1,2,4]triazol-3-ylsulfanyl)-N-(4-benzoyl-phenyl)-acetamide]
13 | 5.30 |  | < 5.30 | Nc1nc(SCC(=O)Nc2ccc(C(=O)c3ccccc3)cc2)c2[nH]cnc2n1 [Compound 68, 2-(2-Amino-7H-purin-ylsulfanyl)-N-(4 benzoyl-phenyl)-acetamide]
14 | 5.17 |  | < 5.30 | Nc1nc(SCC(=O)Nc2ccc(C(=O)c3ccccc3)cc2)nc2[nH]ncc12 [Compound 69, 2-(4-Amino-1H-pyrazolo[3,4-d]pyrimidin-6-ylsulfanyl)-N-(4-benzoyl-phenyl)-acetamide]
15 | < 5.00 |  | < 5.30 | Nc1nc(SCC(=O)Nc2ccc(C(=O)c3ccccc3)cc2)nc(O)c1N=O [Compound 70, 2-(4-Amino-hydroxy-nitroso-pyrimidin-2-ylsulfanyl)-N-(4-benzoyl-phenyl)-acetamide]
16 | 5.89 |  | < 5.30 | O=C(CSc1nc2cc(Cl)ccc2s1)Nc1ccc(C(=O)c2ccccc2)cc1 [Compound 71, N-(4-Benzoyl-phenyl)-2-(5-chloro-benzothiazol-2-ylsulfanyl)-acetamide]
17 | 5.08 |  | < 5.30 | Cc1cc(C)nc(SCC(=O)Nc2ccc(C(=O)c3ccccc3)cc2)n1 [Compound 72, N-(4-Benzoyl-yl)-2-(4,6-dimethyl-pyrimidin-2-ylsulfanyl)-acetamide]
